The values that follow come from patent publication US20240131180A1, “DRUG ANTIBODY CONJUGATES” (PHARMA MAR, S.A., priority 2020, published 2024).

Structures are written as SMILES. pIC50: −log10 of the molar value. Several values for one entry are separate records, joined by “and”; a condition that tells them apart may be missing. Equal values may be shown once. Read-outs that look alike come from different tables or passages of the source.

In assay [1] the test system is MDA-MB-231. As to the kind of experiment: SRB cytotoxicity assay, MDA-MB-231 (HER2-). The format is cell-based. The settings on record: Homo sapiens, MDA-MB-231, 72 h, read-out: IC50 MDA-MB-231. The procedure:
(§1) For SK-BR-3, HCC-1954, MDA-MB-231 and MCF-7 cells, a colorimetric assay using Sulforhodamine B (SRB) was adapted for quantitative measurement of cell growth and cytotoxicity, as described in V. Vichai and K. Kirtikara. Sulforhodamine B colorimetric assay for cytotoxicity screening. Nature Protocols, 2006, 1, 1112-1116. Briefly, cells were seeded in 96-well microtiter plates and allowed to stand for 24 hours in drug-free medium before treatment with vehicle alone or with the tested substances for 72 hours.
(§2) Cell survival was expressed as percentage of control, untreated cell survival.
For orientation: In SRB staining, fixed cells bind dye roughly in proportion to their protein.

Assay [2] relates to SK-BR-3, HCC-1954, MDA-MB-231 and MCF-7 cells. As to the kind of experiment: cells. The note with it: Homo sapiens, 72 h. The format is cell-based. As to the method:
as §1, §2

Another assay concerns SK-BR-3. As to the kind of experiment: SRB cytotoxicity assay, SK-BR-3 (HER2+). The settings on record: Homo sapiens, SK-BR-3, 72 h, read-out: IC50 SK-BR-3. The format is cell-based. The procedure:
as §1, §2

In a further assay the test system is MCF-7. Nature of the assay: SRB cytotoxicity assay, MCF-7 (HER2-). It is filed as cell-based. The note with it: Homo sapiens, MCF7, 72 h, read-out: IC50 MCF-7. The procedure:
as §1, §2

A further assay concerns A549. Nature of the assay: SRB colorimetric assay of cell growth and viability, A549. The note with it: for CC50 / GI50: Homo sapiens; for CC50: A549, 72 h, read-out: LC50 A549; for GI50: A549, NCI algorithm; for GI50 / TGI A549: 72 hours treatment, SRB; for TGI A549: total cell growth inhibition. The format is cell-based. The text has this:
(§3) Using the mean±SD of triplicate cultures, a dose-response curve was automatically generated using nonlinear regression analysis.

For the next assay, the system named is HT29. As to the kind of experiment: SRB colorimetric assay of cell growth and viability, HT29. The note with it: for CC50 / GI50: Homo sapiens; for CC50: HT-29, 72 h, read-out: LC50 HT29; for GI50: HT-29, NCI algorithm; for GI50 / TGI HT29: 72 hours treatment, SRB; for TGI HT29: total cell growth inhibition. It is filed as cell-based.
Text: as §3

In the next assay the test system is HCC-1954. As to the kind of experiment: SRB cytotoxicity assay, HCC-1954 (HER2+). It is filed as cell-based. The settings on record: Homo sapiens, HCC1954, 72 h, read-out: IC50 HCC-1954. As to the method: as §1, §2
Assay [3] deals with MDA-MB-231. As to the kind of experiment: SRB colorimetric assay of cell growth and viability, MDA-MB-231. The format is cell-based. The settings on record: for LC50 / GI50: Homo sapiens; for LC50: MDA-MB-231, 72 h, read-out: LC50 MDA-MB-231; for GI50: MDA-MB-231, NCI algorithm; for GI50 / TGI MDA-MB-231: 72 hours treatment, SRB; for TGI MDA-MB-231: total cell growth inhibition.
Text: as §3

For the next assay, the system named is PSN1. Nature of the assay: SRB colorimetric assay of cell growth and viability, PSN1. It is filed as cell-based. The settings on record: for LC50 / GI50: Homo sapiens; for LC50: PSN1, 72 h, read-out: LC50 PSN1; for GI50: PSN1, NCI algorithm; for GI50 / TGI PSN1: 72 hours treatment, SRB; for TGI PSN1: total cell growth inhibition.
Text: as §3

The next assay concerns Lewis lung carcinoma. The settings on record: very low concentrations; cited from earlier work.
In another assay the test system is P388 lymphoma. The settings on record: very low concentrations; cited from earlier work.
Another assay concerns B16 melanoma. The settings on record: very low concentrations; cited from earlier work.
Setting [4] is: read-out: geometric mean IC50 value across the whole cell panel.

A word on the IC50: it is the midpoint of a concentration-inhibition curve. As a reminder, the pIC50 is the IC50 on a negative log10 scale, so that one unit is a factor of ten. As usually defined, the GI50 is the concentration at which growth is held to half of that of the control. Low values mean greater sensitivity of the cells, high ones lower sensitivity of the cells. A word on the LC50: it is the concentration that kills 50% of the test population. Consider `COc1ccc2[nH]c3c(c2c1)CCN[C@]31CS[C@@H]2c3c(OC(C)=O)c(C)c4c(c3[C@H](COC1=O)N1[C@@H]2[C@@H]2N[C@@H](Cc3cc(C)c(OC)c(O)c32)[C@@H]1O)OCO4` [Compound 1], for which the 50% inhibitory concentration (IC50) in the assay with MDA-MB-231 [1] was 0.00068 µg/mL and 0.882 nM; in the assay with SK-BR-3, 0.00086 µg/mL and 1.12 nM; in the assay with MCF-7 it was 0.0012 µg/mL and 1.56 nM; with HCC-1954, 0.0015 µg/mL and 1.95 nM. Moreover, the pIC50 is 8.71 to 9.05 in assay [2] (read-out: IC50 values in all the tumor cell lines (range)) and 8.88 in [2] (setting [4]). Besides, the CC50 with A549 was 7.78 nM; in the assay on HT29 it was more than 130 nM. The 50% growth inhibitory concentration (GI50) in the assay with A549 was 1.82 nM; with HT29, 1.28 nM; in the assay on MDA-MB-231 [3], 0.752 nM; in the assay with PSN1, 1.22 nM. Further, the “TGI A549” value with A549 is recorded as 3.37E−09 Molar. Moreover, the “TGI HT29” value in the assay with HT29 is listed as 1.43E−09 Molar. Further, the LC50 in the assay on MDA-MB-231 [3] came out at 2.46 nM; in the assay on PSN1, 2.34 nM. Also, the “TGI MDA-MB-231” value in the assay on MDA-MB-231 [3] turned out to be 1.30E−09 Molar. The “TGI PSN1” value in the assay on PSN1 stood at 1.69E−09 Molar.

Turning to `COc1ccc2[nH]c3c(c2c1)CCN[C@]31CS[C@@H]2c3c(OC(C)=O)c(C)c4c(c3[C@H](COC1=O)N1[C@@H]2[C@@H]2N[C@@H](Cc3cc(C)c(OC)c(O)c32)[C@@H]1C#N)OCO4` [Compound 2], the IC50 in the assay on MDA-MB-231 [1] is 0.00069 µg/mL and 0.885 nM. In addition, the pIC50 in assay [2] (setting [4]) was 8.82. In addition, the IC50 in the assay on SK-BR-3 was 0.00096 µg/mL and 1.23 nM. In addition, the IC50 in the assay on MCF-7 is 0.0017 µg/mL and 2.18 nM. Further, in the assay on A549, the CC50 was more than 1280 nM, the concentration for 50% growth inhibition (GI50) is 12.8 nM and the “TGI A549” value worked out at 1.28E−08 Molar. In the assay on HT29, the CC50 is not below 1280 nM, the GI50 came out at 5.13 nM and the “TGI HT29” value is 5.64E−09 Molar. In addition, in the assay with HCC-1954, the IC50 was 0.0018 µg/mL and 2.31 nM. For the same compound, in the assay with MDA-MB-231 [3], the LC50 was determined as 5.77 nM, growth was halved (GI50) at 5 nM and the “TGI MDA-MB-231” value came out at 5.26E−09 Molar. In the assay with PSN1, the LC50 stood at 5 nM, the GI50 was determined as 2.05 nM and the “TGI PSN1” value stood at 3.08E−09 Molar.

As to `COc1ccc2[nH]c3c(c2c1)C[C@H](CO)N[C@]31CS[C@@H]2c3c(OC(C)=O)c(C)c4c(c3[C@H](COC1=O)N1[C@@H]2[C@@H]2N[C@@H](Cc3cc(C)c(OC)c(O)c32)[C@@H]1C#N)OCO4` [Compound 10-R], in the assay with A549, the CC50 was more than 123 nM, it took 4.32 nM to inhibit growth by half (GI50) and the “TGI A549” value is recorded as 1.20E−08 Molar. In the assay with HT29, the CC50 is more than 123 nM, growth was halved (GI50) at 0.864 nM and the “TGI HT29” value is recorded as 1.61E−09 Molar. In addition, in the assay with MDA-MB-231 [3], the LC50 came out at 3.09 nM, growth was halved (GI50) at 0.679 nM and the “TGI MDA-MB-231” value worked out at 1.21E−09 Molar. Besides, in the assay on PSN1, the LC50 is more than 123 nM, the GI50 was determined as 0.753 nM and the “TGI PSN1” value amounted to 1.48E−09 Molar.

On to `COc1ccc2[nH]c3c(c2c1)C[C@H](CO)N[C@]31CS[C@@H]2c3c(OC(C)=O)c(C)c4c(c3[C@H](COC1=O)N1[C@@H]2[C@@H]2N[C@@H](Cc3cc(C)c(OC)c(O)c32)[C@@H]1O)OCO4` [Compound 11-R], for which, in the assay on A549, the CC50 was more than 125 nM, halving of growth (GI50) required 15 nM and the “TGI A549” value is 4.50E−08 Molar. Besides, in the assay with HT29, the CC50 is more than 125 nM, the GI50 was 2 nM and the “TGI HT29” value came to 3.62E−09 Molar. Moreover, in the assay with MDA-MB-231 [3], the LC50 was 7.24 nM, it took 1.62 nM to inhibit growth by half (GI50) and the “TGI MDA-MB-231” value is 2.87E−09 Molar. In the assay on PSN1, the LC50 worked out at 15 nM, growth was halved (GI50) at 2.12 nM and the “TGI PSN1” value is on record as 3.62E−09 Molar.

Consider `COc1c(C)cc2c(c1O)[C@H]1N[C@@H](C2)[C@H](C#N)N2[C@H]1[C@@H]1SC[C@]3(NCCc4c3oc3ccccc43)C(=O)OC[C@H]2c2c3c(c(C)c(OC(C)=O)c21)OCO3` [Compound 14], for which, in the assay with A549, the CC50 is more than 133 nM, the GI50 is 8.79 nM and the “TGI A549” value stood at 1.73E−08 Molar. Also, in the assay with HT29, the CC50 is more than 133 nM, halving of growth (GI50) required 8.52 nM and the “TGI HT29” value stood at 9.19E−09 Molar. In the assay with MDA-MB-231 [3], the LC50 amounted to 29.3 nM, it took 6.66 nM to inhibit growth by half (GI50) and the “TGI MDA-MB-231” value stood at 1.13E−08 Molar. For the same compound, in the assay on PSN1, the LC50 came to 22.6 nM, it took 9.72 nM to inhibit growth by half (GI50) and the “TGI PSN1” value was found to be 1.33E−08 Molar.

As for `COc1c(C)cc2c(c1O)[C@H]1N[C@@H](C2)[C@H](O)N2[C@H]1[C@@H]1SC[C@]3(NCCc4c3oc3ccccc43)C(=O)OC[C@H]2c2c3c(c(C)c(OC(C)=O)c21)OCO3` [Compound 15], in the assay with A549, the CC50 is more than 135 nM, halving of growth (GI50) required 12.1 nM and the “TGI A549” value is 2.56E−08 Molar. Also, in the assay on HT29, the CC50 was more than 135 nM, the GI50 was 8.76 nM and the “TGI HT29” value worked out at 9.57E−09 Molar. In the assay with MDA-MB-231 [3], the LC50 was 24.3 nM, the GI50 is 7.14 nM and the “TGI MDA-MB-231” value amounted to 1.16E−08 Molar. In the assay with PSN1, the LC50 turned out to be 45.8 nM, halving of growth (GI50) required 9.98 nM and the “TGI PSN1” value is listed as 1.48E−08 Molar.

Turning to `COc1c(C)cc2c(c1O)[C@H]1N[C@@H](C2)[C@H](O)N2[C@H]1[C@@H]1SC[C@]3(NCCc4c3[nH]c3ccccc43)C(=O)OC[C@H]2c2c3c(c(C)c(OC(C)=O)c21)OCO3` [ET-722, Ecteinascidin 722], in the assay on Lewis lung carcinoma, the “protection of mice in vivo against Lewis lung carcinoma” value is on record as “protects mice in vivo at very low concentrations”. In the assay on A549, the CC50 is more than 135 nM, the GI50 was found to be 1.35 nM and the “TGI A549” value is 1.35E−09 Molar. For the same compound, in the assay with HT29, the CC50 is more than 135 nM, the GI50 was determined as 1.35 nM and the “TGI HT29” value was 1.48E−09 Molar. Besides, in the assay on MDA-MB-231 [3], the LC50 was 2.56 nM, growth was halved (GI50) at 0.891 nM and the “TGI MDA-MB-231” value came to 1.48E−09 Molar. The “protection of mice in vivo against P388 lymphoma” value in the assay with P388 lymphoma was “protects mice in vivo at very low concentrations”. In addition, in the assay with PSN1, the LC50 turned out to be 3.1 nM, the concentration for 50% growth inhibition (GI50) worked out at 1.48 nM and the “TGI PSN1” value worked out at 2.16E−09 Molar. In addition, the “protection of mice in vivo against B16 melanoma” value with B16 melanoma was “protects mice in vivo at very low concentrations”.
